Experimental data: US10414811B2, “Protease-resistant lipidated GLP-1 analogs” (MEDIMMUNE LIMITED, priority 2015, dated 2019)
Like-named read-outs stand apart in the source and are kept apart here. Numbered stars: 1 amine (or outer) side, 2 acyl side, 3 side chain; on linkers, the order of the positions; unused ones are H or OH. Square brackets hold non-standard residues; d marks the D form. Side chains are listed from the residue outwards. Peptide text beside a SMILES is read from it. * marks the point of attachment. γGlu = O=C(O)[C@H](CCC(=O)[*:2])N[*:1]; Palmitoyl = CCCCCCCCCCCCCCCC(=O)*; αMeF = C[C@](N)(Cc1ccccc1)C(=O)O; αMeK = C[C@](N)(CCCCN)C(=O)O; Lauroyl = CCCCCCCCCCCC(=O)*; αMeS = C[C@](N)(CO)C(=O)O; AEEA = NCCOCCOCC(=O)O; Aib = CC(C)(N)C(=O)O

Legend:
Format in all cases: cell-based
[1] = molecular target: T1, human glucagon receptor (GCGR) (Homo sapiens, UniProt P47871); assay: cAMP assay, human GCGR cells
T1 construct: expressed in transfected cells
T1 sequence (P47871 26-477): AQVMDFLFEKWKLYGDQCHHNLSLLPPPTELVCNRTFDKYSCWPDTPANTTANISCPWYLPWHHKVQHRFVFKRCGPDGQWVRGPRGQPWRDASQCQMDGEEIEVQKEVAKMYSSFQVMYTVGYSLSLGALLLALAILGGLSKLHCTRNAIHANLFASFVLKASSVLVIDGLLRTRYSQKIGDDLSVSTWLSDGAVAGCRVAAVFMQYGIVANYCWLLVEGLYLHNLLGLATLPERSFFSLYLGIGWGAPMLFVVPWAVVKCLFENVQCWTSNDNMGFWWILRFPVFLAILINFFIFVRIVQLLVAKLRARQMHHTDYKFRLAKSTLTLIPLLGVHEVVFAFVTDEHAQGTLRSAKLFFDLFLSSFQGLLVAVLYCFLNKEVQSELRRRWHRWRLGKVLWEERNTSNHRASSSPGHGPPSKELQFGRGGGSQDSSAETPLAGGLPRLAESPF
In short: (§1)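 Peptide-stimulated cAMP measured by two-step HTRF after a 30 min room-temperature incubation with receptor-expressing cells (hGLP-1R, hGIPR at 1×10^5 cells/ml; hGCGR at 2×10^5 cells/ml). Duplicate dilutions; EC50 from 4-parameter logistic fit of % Delta F.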

[2] = molecular target: T2, human GLP-1 receptor (GLP-1R) (Homo sapiens, UniProt P43220); assay: cAMP assay, human GLP-1R cells
T2 construct: expressed in transfected cells
T2 sequence (P43220 24-463): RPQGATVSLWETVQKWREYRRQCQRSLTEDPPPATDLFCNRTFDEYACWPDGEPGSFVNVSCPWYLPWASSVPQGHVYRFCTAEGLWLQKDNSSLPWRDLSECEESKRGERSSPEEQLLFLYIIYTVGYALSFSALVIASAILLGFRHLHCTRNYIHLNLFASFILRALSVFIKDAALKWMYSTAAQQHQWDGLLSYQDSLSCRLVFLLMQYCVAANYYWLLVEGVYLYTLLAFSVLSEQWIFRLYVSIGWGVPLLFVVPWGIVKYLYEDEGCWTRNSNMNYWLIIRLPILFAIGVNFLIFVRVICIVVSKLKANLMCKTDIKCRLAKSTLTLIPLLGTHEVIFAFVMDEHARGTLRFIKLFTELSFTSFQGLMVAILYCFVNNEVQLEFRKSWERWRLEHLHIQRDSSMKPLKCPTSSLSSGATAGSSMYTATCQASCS
In short: as §1

[3] = molecular target: T3, human glucose-dependent insulinotropic peptide receptor (GIPR) (Homo sapiens, UniProt P48546); assay: cAMP assay, human GIPR cells
T3 construct: expressed in transfected cells
T3 sequence (P48546 22-466): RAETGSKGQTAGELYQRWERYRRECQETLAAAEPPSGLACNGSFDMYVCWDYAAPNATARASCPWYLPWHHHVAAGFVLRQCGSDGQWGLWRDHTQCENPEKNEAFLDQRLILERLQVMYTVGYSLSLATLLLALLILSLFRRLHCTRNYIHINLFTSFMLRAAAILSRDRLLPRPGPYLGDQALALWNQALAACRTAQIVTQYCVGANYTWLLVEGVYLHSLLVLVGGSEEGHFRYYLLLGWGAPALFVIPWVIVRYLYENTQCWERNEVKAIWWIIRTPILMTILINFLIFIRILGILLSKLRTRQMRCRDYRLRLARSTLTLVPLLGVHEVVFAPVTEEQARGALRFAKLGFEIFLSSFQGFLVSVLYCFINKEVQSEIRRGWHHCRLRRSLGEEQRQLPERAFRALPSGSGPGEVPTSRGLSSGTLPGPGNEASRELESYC
In short: as §1

[4] = cAMP assay, first determination (n1), read-out: Primary assay EC50 Gluc-R (n1)
[5] = cAMP assay, second determination (n2), read-out: Primary assay EC50 Gluc-R (n2)
[6] = cAMP assay, first determination (n1), read-out: Primary assay EC50 GLP-1R n1
[7] = cAMP assay, second determination (n2), read-out: Primary assay EC50 GLP-1R n2
[8] = mean of n1 and n2, read-out: Mean pM GLP-1R
[9] = cAMP assay, first determination (n1), read-out: Primary assay EC50 GIP-R (n1)
[10] = cAMP assay, second determination (n2), read-out: Primary assay EC50 GIP-R (n2)

Structure (SMILES) | EC50 [1, 4] | EC50 [1, 5] | EC50 [2, 6] | EC50 [2, 7] | EC50 [2, 8] | EC50 [3, 9] | EC50 [3, 10] | EC50 ([1]; tris-lipidated peptides, first replicate, read-out: Primary assay EC50 Gluc-R (n1)) | EC50 ([2]; tris-lipidated peptides, mean of n1 and n2, read-out: Primary assay EC50 Mean pM GLP-1R) | EC50 ([2]; tris-lipidated peptides, replicate n1, read-out: Primary assay EC50 GLP-1R n1) | EC50 ([2]; tris-lipidated peptides, replicate n2, read-out: Primary assay EC50 GLP-1R n2) | EC50 ([3]; tris-lipidated peptides, first replicate, read-out: Primary assay EC50 GIP-R (n1))
CCCCCCCCCCCCCCCCCC(=O)N[C@@H](CCC(=O)N[C@@H](CCC(=O)NCCCC[C@H](NC(=O)[C@@H](NC(=O)[C@@H](NC(=O)[C@](C)(Cc1ccccc1)NC(=O)[C@H](C)NC(=O)[C@@H](NC(=O)[C@](C)(Cc1ccccc1)NC(=O)[C@H](CCC(=O)O)NC(=O)[C@](C)(CCCCN)NC(=O)[C@H](C)NC(=O)[C@H](C)NC(=O)[C@H](CCC(=O)O)NC(=O)CNC(=O)[C@H](CCC(=O)O)NC(=O)[C@H](CC(C)C)NC(=O)[C@](C)(Cc1ccccc1)NC(=O)[C@H](CO)NC(=O)[C@](C)(CO)NC(=O)[C@@H](NC(=O)[C@H](CC(=O)O)NC(=O)[C@H](CO)NC(=O)[C@@H](NC(=O)[C@](C)(Cc1ccccc1)NC(=O)[C@H](CO)NC(=O)CNC(=O)[C@H](CCC(=O)O)NC(=O)C(C)(C)NC(=O)[C@@H](N)Cc1c[nH]cn1)[C@@H](C)O)C(C)C)[C@@H](C)CC)C(C)C)C(C)C)C(=O)NCC(=O)NCC(N)=O)C(=O)O)C(=O)O [compound 183] | ≥ 27 nM | ≥ 27 nM | 64 pM | 18 pM | 40.9 pM | ≥ 27 nM | ≥ 27 nM | – | – | – | – | –
CCCCCCCCCCCCCCCC(=O)N[C@@H](CCC(=O)NCCCC[C@H](NC(=O)[C@H](CO)NC(=O)CNC(=O)[C@H](CCC(=O)O)NC(=O)C(C)(C)NC(=O)[C@@H](N)Cc1c[nH]cn1)C(=O)N[C@H](C(=O)N[C@@H](CO)C(=O)N[C@@H](CC(=O)O)C(=O)N[C@H](C(=O)N[C@@](C)(CO)C(=O)N[C@@H](CO)C(=O)N[C@@](C)(Cc1ccccc1)C(=O)N[C@@H](CC(C)C)C(=O)N[C@@H](CCC(=O)O)C(=O)NCC(=O)N[C@@H](CCC(=O)O)C(=O)N[C@@H](C)C(=O)N[C@@H](C)C(=O)N[C@@](C)(CCCCN)C(=O)N[C@@H](CCC(=O)O)C(=O)N[C@@](C)(Cc1ccccc1)C(=O)N[C@H](C(=O)N[C@@H](C)C(=O)N[C@@](C)(Cc1ccccc1)C(=O)N[C@H](C(=O)N[C@H](C(=O)N[C@@](C)(CCCCN)C(=O)NCC(=O)NCC(N)=O)C(C)C)C(C)C)[C@@H](C)CC)C(C)C)[C@@H](C)O)C(=O)O [compound 94] | ≥ 28 nM | ≥ 28 nM | 140 pM | 320 pM | 228 pM | ≥ 28 nM | ≥ 28 nM | – | – | – | – | –
CC[C@H](C)[C@H](NC(=O)[C@](C)(Cc1ccccc1)NC(=O)[C@H](CCC(=O)O)NC(=O)[C@](C)(CCCCN)NC(=O)[C@H](C)NC(=O)[C@H](C)NC(=O)[C@H](CCC(=O)O)NC(=O)CNC(=O)[C@H](CCC(=O)O)NC(=O)[C@H](CC(C)C)NC(=O)[C@](C)(Cc1ccccc1)NC(=O)[C@H](CO)NC(=O)[C@](C)(CO)NC(=O)[C@@H](NC(=O)[C@H](CC(=O)O)NC(=O)[C@H](CC(=O)O)NC(=O)[C@@H](NC(=O)[C@](C)(Cc1ccccc1)NC(=O)[C@H](CO)NC(=O)CNC(=O)[C@H](CCC(=O)O)NC(=O)C(C)(C)NC(=O)[C@@H](N)Cc1c[nH]cn1)[C@@H](C)O)C(C)C)C(=O)N[C@@H](C)C(=O)N[C@@](C)(Cc1ccccc1)C(=O)N[C@H](C(=O)N[C@H](C(=O)N[C@@](C)(CCCCN)C(=O)NCC(=O)NCC(N)=O)C(C)C)C(C)C [compound 27] (H-H[Aib]EGS[αMeF]TDDV[αMeS]S[αMeF]LEGEAA[αMeK]E[αMeF]IA[αMeF]VV[αMeK]GG-NH2; N-terminus assumed) | ≥ 100 nM | 40 nM | 420 pM | 480 pM | 446 pM | ≥ 100 nM | ≥ 100 nM | – | – | – | – | –
CC[C@H](C)[C@H](NC(=O)[C@](C)(Cc1ccccc1)NC(=O)[C@H](CCC(=O)O)NC(=O)[C@](C)(CCCCN)NC(=O)[C@H](C)NC(=O)[C@H](C)NC(=O)[C@H](CCC(=O)O)NC(=O)CNC(=O)[C@H](CCC(=O)O)NC(=O)[C@H](CC(C)C)NC(=O)[C@](C)(Cc1ccccc1)NC(=O)[C@H](CO)NC(=O)[C@](C)(CO)NC(=O)[C@@H](NC(=O)[C@H](CC(=O)O)NC(=O)[C@H](CO)NC(=O)[C@@H](NC(=O)[C@](C)(Cc1ccccc1)NC(=O)[C@H](CO)NC(=O)CNC(=O)[C@H](CCC(=O)O)NC(=O)[C@H](CCCCNC(=O)COCCOCCNC(=O)COCCOCCNC(=O)CC[C@H](NC(=O)CCCCCCCCCCCCCCCCC(=O)O)C(=O)O)NC(=O)[C@@H](N)Cc1c[nH]cn1)[C@@H](C)O)C(C)C)C(=O)N[C@@H](C)C(=O)N[C@@](C)(Cc1ccccc1)C(=O)N[C@H](C(=O)N[C@H](C(=O)N[C@@](C)(CCCCN)C(=O)NCC(=O)NCC(N)=O)C(C)C)C(C)C [compound 127] | ≥ 25 nM | ≥ 25.1 nM | ≥ 25000 pM | ≥ 25100 pM | ≥ 25100 pM | ≥ 25 nM | ≥ 25.1 nM | – | – | – | – | –
CCCCCCCCCCCCCCCC(=O)N[C@@H](CCC(=O)NCCCC[C@H](NC(=O)[C@H](CC(C)C)NC(=O)[C@](C)(Cc1ccccc1)NC(=O)[C@H](CO)NC(=O)[C@](C)(CO)NC(=O)[C@@H](NC(=O)[C@H](CC(=O)O)NC(=O)[C@H](CO)NC(=O)[C@@H](NC(=O)[C@](C)(Cc1ccccc1)NC(=O)[C@H](CO)NC(=O)CNC(=O)[C@H](CCC(=O)O)NC(=O)C(C)(C)NC(=O)[C@@H](N)Cc1c[nH]cn1)[C@@H](C)O)C(C)C)C(=O)NCC(=O)N[C@@H](CCC(=O)O)C(=O)N[C@@H](C)C(=O)N[C@@H](C)C(=O)N[C@@](C)(CCCCN)C(=O)N[C@@H](CCC(=O)O)C(=O)N[C@@](C)(Cc1ccccc1)C(=O)N[C@H](C(=O)N[C@@H](C)C(=O)N[C@@](C)(Cc1ccccc1)C(=O)N[C@H](C(=O)N[C@H](C(=O)N[C@@](C)(CCCCN)C(=O)NCC(=O)NCC(N)=O)C(C)C)C(C)C)[C@@H](C)CC)C(=O)O [compound 85] (H-H[Aib]EGS[αMeF]TSDV[αMeS]S[αMeF]LK([γGlu-Palmitoyl])GEAA[αMeK]E[αMeF]IA[αMeF]VV[αMeK]GG-NH2; N-terminus assumed) | ≥ 28 nM | ≥ 28 nM | 66 pM | 140 pM | 101 pM | ≥ 28 nM | ≥ 28 nM | – | – | – | – | –
CCCCCCCCCCCCCCCC(=O)N[C@@H](CCC(=O)NCCCC[C@H](NC(=O)[C@H](C)NC(=O)[C@H](C)NC(=O)[C@H](CCC(=O)O)NC(=O)CNC(=O)[C@H](CCC(=O)O)NC(=O)[C@H](CC(C)C)NC(=O)[C@](C)(Cc1ccccc1)NC(=O)[C@H](CO)NC(=O)[C@H](CO)NC(=O)[C@@H](NC(=O)[C@H](CC(=O)O)NC(=O)[C@H](CO)NC(=O)[C@@H](NC(=O)[C@](C)(Cc1ccccc1)NC(=O)[C@H](CO)NC(=O)CNC(=O)[C@H](CCC(=O)O)NC(=O)C(C)(C)NC(=O)[C@@H](N)Cc1c[nH]cn1)[C@@H](C)O)C(C)C)C(=O)N[C@@H](CCC(=O)O)C(=O)N[C@@](C)(Cc1ccccc1)C(=O)N[C@H](C(=O)N[C@@H](C)C(=O)N[C@@](C)(Cc1ccccc1)C(=O)N[C@H](C(=O)N[C@H](C(=O)N[C@@H](CCCCN)C(=O)NCC(=O)NCC(N)=O)C(C)C)C(C)C)[C@@H](C)CC)C(=O)O [compound 41] | ≥ 94 nM | ≥ 28 nM | 240 pM | 51 pM | 147 pM | ≥ 94 nM | ≥ 28 nM | – | – | – | – | –
CCCCCCCCCCCC(=O)N[C@@H](CCC(=O)NCCOCCOCC(=O)NCCOCCOCC(=O)NCCCC[C@H](NC(=O)[C@H](C)NC(=O)[C@@H](NC(=O)[C@H](Cc1ccccc1)NC(=O)[C@H](CCC(=O)O)NC(=O)[C@](C)(CCCCN)NC(=O)[C@H](C)NC(=O)[C@H](CCCCNC(=O)COCCOCCNC(=O)COCCOCCNC(=O)CC[C@H](NC(=O)CCCCCCCCCCC)C(=O)O)NC(=O)[C@H](CCC(=O)O)NC(=O)CNC(=O)[C@H](CCC(=O)O)NC(=O)[C@H](CC(C)C)NC(=O)[C@H](CCCCNC(=O)COCCOCCNC(=O)COCCOCCNC(=O)CC[C@H](NC(=O)CCCCCCCCCCC)C(=O)O)NC(=O)[C@H](CO)NC(=O)[C@](C)(CO)NC(=O)[C@@H](NC(=O)[C@H](CC(=O)O)NC(=O)[C@H](CO)NC(=O)[C@@H](NC(=O)[C@](C)(Cc1ccccc1)NC(=O)[C@H](CO)NC(=O)CNC(=O)[C@H](CCC(=O)O)NC(=O)C(C)(C)NC(=O)[C@@H](N)Cc1c[nH]cn1)[C@@H](C)O)C(C)C)[C@@H](C)CC)C(=O)N[C@H](C(=O)N[C@H](C(=O)N[C@@H](CCC(=O)O)C(=O)NCC(=O)NCC(N)=O)C(C)C)C(C)C)C(=O)O [compound 465] (H-H[Aib]EGS[αMeF]TSDV[αMeS]SK([AEEA-AEEA-γGlu-Lauroyl])LEGEK([AEEA-AEEA-γGlu-Lauroyl])A[αMeK]EFIAK([AEEA-AEEA-γGlu-Lauroyl])VVEGG-NH2) | – | – | – | – | – | – | – | 20 nM | 117 pM | 101 pM | 133 pM | 20 nM
